Some test systems named below: HS 578T breast; BT-549 breast; MCF7 breast; T-47D breast; MDA-MB-435; NCI/ADR-RES ovarian.
Common to all, as to experiment: growth of human tumour cells (NCI), 48 h

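Each compound was tested at five concentrations against cells in 96-well plates for 48 hours. Here, GI50 denotes the concentration required for 50% inhibition of growth. Definition used: TGI = concentration required for complete inhibition of growth.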

Consider `COc1cc(/C=C/C(=O)c2c(-c3ccc(Cl)cc3)nc3sc(C)nn23)cc(OC)c1OC`, for which the GI50 was 24.7 µM in the assay with HS 578T breast; 7.77 µM with BT-549 breast; 8.81 µM in the assay with MCF7 breast; 2.56 µM in the assay with T-47D breast; 12.1 µM with MDA-MB-435; 7.85 µM in the assay with NCI/ADR-RES ovarian. Moreover, the TGI with HS 578T breast is over 100 µM; in the assay with BT-549 breast, 77.7 µM; in the assay with MCF7 breast, over 100 µM; in the assay on T-47D breast, 13.5 µM; in the assay with MDA-MB-435, over 100 µM; in the assay with NCI/ADR-RES ovarian, over 100 µM.

Turning to `CCn1c(SC)nnc1-c1cc2c([nH]c3ccccc32)c(-c2cccc(O)c2)n1`, the GI50 in the assay with HS 578T breast is 1.97 µM; with BT-549 breast, 1.68 µM; in the assay with MCF7 breast, 0.995 µM; in the assay on T-47D breast, 1.78 µM; in the assay on MDA-MB-435, 0.248 µM; in the assay with NCI/ADR-RES ovarian it was 3.71 µM. Also, the TGI was 9.76 µM with HS 578T breast; 6.31 µM with BT-549 breast; 25.2 µM in the assay on MCF7 breast; 22.5 µM with T-47D breast; 0.851 µM in the assay on MDA-MB-435; 36.1 µM in the assay with NCI/ADR-RES ovarian.

As for `O=C(COC(=O)[C@H](C[Se][Se]C[C@H](NC(=O)c1ccc(Br)cc1F)C(=O)OCC(=O)c1ccc(F)cc1)NC(=O)c1ccc(Br)cc1F)c1ccc(F)cc1`, the GI50 in the assay with HS 578T breast was 0.298 µM; in the assay on BT-549 breast, 0.603 µM; with MCF7 breast, 0.984 µM; in the assay on T-47D breast, 1.41 µM; in the assay with MDA-MB-435, 1.89 µM; with NCI/ADR-RES ovarian, 0.821 µM. Besides, the TGI in the assay with HS 578T breast turned out to be 1.31 µM; with BT-549 breast, 1.31 µM; in the assay with MCF7 breast it was 3.06 µM; in the assay on T-47D breast it was 4.08 µM; in the assay on MDA-MB-435 it was 4.3 µM; in the assay with NCI/ADR-RES ovarian, 2.39 µM.

With `O=C1OC(c2ccccc2)=N/C1=C\c1ccc(N(CCCl)CCCl)cc1`, the TGI with HS 578T breast is over 100 µM; in the assay with BT-549 breast, over 100 µM; with MCF7 breast it was over 100 µM; in the assay on T-47D breast it was over 84.8 µM; in the assay on MDA-MB-435 it was over 100 µM; in the assay on NCI/ADR-RES ovarian, over 100 µM.

Consider `c1csc(-c2[nH]nc3c2CCc2ccccc2-3)c1`, for which the GI50 in the assay with HS 578T breast is 14.5 µM; with BT-549 breast, 16.1 µM; in the assay with MCF7 breast it was 0.23 µM; in the assay on T-47D breast, 0.17 µM; with MDA-MB-435, 19.2 µM; in the assay on NCI/ADR-RES ovarian, 17.7 µM. The TGI was found to be 55.4 µM in the assay with HS 578T breast; 31.9 µM with BT-549 breast; 11.8 µM with MCF7 breast; 0.515 µM with T-47D breast; 42.6 µM with MDA-MB-435; 49.3 µM in the assay on NCI/ADR-RES ovarian.

Consider `O=C1C(=O)c2c(ccc3ccccc23)-c2ccccc21`, for which the GI50 in the assay on HS 578T breast was 2.05 µM; in the assay with BT-549 breast it was 2.05 µM; in the assay on MCF7 breast, 1.53 µM; in the assay on T-47D breast, 1.75 µM; with MDA-MB-435 it was 1.59 µM; in the assay on NCI/ADR-RES ovarian, 1.19 µM. The TGI with HS 578T breast is 6 µM; in the assay on BT-549 breast it was 4.62 µM; in the assay on MCF7 breast, 3.48 µM; in the assay on T-47D breast it was 3.96 µM; with MDA-MB-435, 3.52 µM; in the assay with NCI/ADR-RES ovarian, 5.88 µM.

Regarding `CC(=O)OC1CCC2(C)C(=CCC3C4CC(CN5CC5)C(=O)C4(C)CCC32)C1` (stereo unspecified), the GI50 in the assay with HS 578T breast was 20.4 µM; with BT-549 breast it was 10.4 µM; with MCF7 breast, 0.67 µM; in the assay with T-47D breast, 0.914 µM; in the assay on MDA-MB-435 it was 14.8 µM; in the assay with NCI/ADR-RES ovarian it was 16 µM. The TGI with HS 578T breast came to 65.8 µM; in the assay on BT-549 breast it was 22.9 µM; in the assay with MCF7 breast it was 2.68 µM; with T-47D breast it was 2.7 µM; in the assay with MDA-MB-435 it was 28.4 µM; in the assay on NCI/ADR-RES ovarian, 41.5 µM.

On to `Brc1ccc2c(c1)-c1ccccc1C1=NCCN12`, for which the GI50 in the assay on HS 578T breast is 2.8 µM; in the assay with BT-549 breast it was 1.88 µM; in the assay with MCF7 breast, 0.552 µM; in the assay with T-47D breast, 2.85 µM; with MDA-MB-435, 1.06 µM; with NCI/ADR-RES ovarian, 0.897 µM. In addition, the TGI with HS 578T breast turned out to be 12 µM; in the assay with BT-549 breast, 6.07 µM; in the assay with MCF7 breast, 10.9 µM; in the assay on T-47D breast it was 18.4 µM; in the assay with MDA-MB-435, 2.45 µM; with NCI/ADR-RES ovarian it was 26.7 µM.

`Cc1cccc(Cc2cnc(NC(=O)CCCOc3ccc(Cl)cc3)s2)c1`: the GI50 is 5.32 µM in the assay on HS 578T breast; over 100 µM in the assay on BT-549 breast; 3.16 µM with MCF7 breast; 5.82 µM in the assay with T-47D breast; 1.62 µM with MDA-MB-435; 29.3 µM in the assay on NCI/ADR-RES ovarian. Besides, the TGI is over 100 µM in the assay with HS 578T breast; over 100 µM in the assay on BT-549 breast; over 100 µM in the assay on MCF7 breast; over 100 µM with T-47D breast; 4.32 µM in the assay with MDA-MB-435; over 100 µM in the assay with NCI/ADR-RES ovarian.

`O=C(Nc1cccc(C(F)(F)F)c1)Nc1cc(S(=O)(=O)NC2CC2)ccc1-c1ccsc1`: the GI50 in the assay on HS 578T breast is 8.96 µM; in the assay on MCF7 breast, 3.26 µM; in the assay with T-47D breast, 3.16 µM; in the assay with MDA-MB-435 it was 3.61 µM; with NCI/ADR-RES ovarian it was 6.05 µM. Besides, the TGI in the assay with HS 578T breast was 35.8 µM; in the assay with MCF7 breast, 15 µM; in the assay on T-47D breast, 15 µM; in the assay with MDA-MB-435, 13.1 µM; in the assay on NCI/ADR-RES ovarian, 26.9 µM.

`O=C(Nc1cccc(C(F)(F)F)c1)Nc1ccc(OCc2nnc(-c3ccccc3)o2)c(F)c1`: the GI50 was 2.5 µM in the assay on HS 578T breast; 4.21 µM in the assay on MCF7 breast; 2.44 µM with T-47D breast; 7.51 µM in the assay with MDA-MB-435; 4.61 µM with NCI/ADR-RES ovarian. Also, the TGI in the assay on HS 578T breast came out at 14.7 µM; with MCF7 breast it was 24.4 µM; in the assay with T-47D breast it was 16.1 µM; in the assay on MDA-MB-435 it was 89.8 µM; in the assay on NCI/ADR-RES ovarian, 26.9 µM.

As for `Cc1cc(C2(c3cc(C)c(O)c4ncccc34)OC(=O)c3ccccc32)c2cccnc2c1O`, the GI50 with BT-549 breast is 5.26 µM; with NCI/ADR-RES ovarian, 0.0138 µM. Further, the TGI in the assay with BT-549 breast was over 100 µM; in the assay with MCF7 breast, over 100 µM; with MDA-MB-435, over 100 µM; in the assay on NCI/ADR-RES ovarian, 17.1 µM.

Regarding `Clc1ccc(N=CNc2ccc(-c3nc4ccccc4[nH]3)cc2)cc1`, the GI50 is 91.9 µM in the assay on HS 578T breast, 20.7 µM in the assay with BT-549 breast, 42.6 µM in the assay with T-47D breast and 6.88 µM in the assay with MDA-MB-435. The TGI in the assay on HS 578T breast was over 100 µM; in the assay on BT-549 breast it was 57.3 µM; in the assay with T-47D breast, over 100 µM; in the assay with MDA-MB-435, over 100 µM.

The record behind these values is PubChem BioAssay (NCI).
